Experimental data taken from patent publication US20140128385A1 (NOVARTIS AG, priority 2011, published 2014).
Structures can show the parent of a compound that is named as a salt.

Biological target: T1, BACE-2 (Homo sapiens, UniProt Q9Y5Z0)
T1 construct: Recombinant BACE-2 (extracellular domain, expressed in baculovirus and purified using standard methods); made in house
T1 sequence (Q9Y5Z0 63-473 limits assumed): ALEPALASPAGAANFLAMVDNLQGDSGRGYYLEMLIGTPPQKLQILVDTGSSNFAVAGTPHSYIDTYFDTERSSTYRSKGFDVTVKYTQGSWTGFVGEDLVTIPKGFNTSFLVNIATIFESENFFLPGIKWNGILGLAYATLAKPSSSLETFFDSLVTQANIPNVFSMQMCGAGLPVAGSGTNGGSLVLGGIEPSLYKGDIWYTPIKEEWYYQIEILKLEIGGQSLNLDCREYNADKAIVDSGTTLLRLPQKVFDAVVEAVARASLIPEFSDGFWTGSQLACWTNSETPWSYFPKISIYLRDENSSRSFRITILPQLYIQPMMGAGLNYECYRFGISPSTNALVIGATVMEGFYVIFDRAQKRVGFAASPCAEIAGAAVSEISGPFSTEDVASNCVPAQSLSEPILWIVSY
Experiment: assay for inhibition of BACE-2
Assay type: biochemical

`CC#CCOc1cnc(C(=O)Nc2ccc(F)c([C@]3(C(F)F)COCC(N)=N3)c2)c(C)n1` [Example 182, 5-But-2-ynyloxy-3-methyl-pyrazine-2-carboxylic acid [3-((R)-5-amino-3-difluoromethyl-3,6-dihydro-2H-[1,4]oxazin-3-yl)-4-fluoro-phenyl]-amide hydrochloride] showed an IC50 of 171 nM.

With `COCc1cnc(C(=O)Nc2ccc(F)c([C@]3(C(F)F)COCC(N)=N3)c2)c(Cl)c1` [Example 183, 3-Chloro-5-methoxymethyl-pyridine-2-carboxylic acid [3-((R)-5-amino-3-di-fluoromethyl-3,6-dihydro-2H-[1,4]oxazin-3-yl)-4-fluoro-phenyl]-amide hydrochloride] the IC50 was 4940 nM.

Compound `NC1=N[C@@](c2cc(NC(=O)c3ncc(OCF)cc3Cl)ccc2F)(C(F)F)COC1` [Example 184, 3-Chloro-5-fluoromethoxy-pyridine-2-carboxylic acid [3-((R)-5-amino-3-di-fluoromethyl-3,6-dihydro-2H-[1,4]oxazin-3-yl)-4-fluoro-phenyl]-amide hydrochloride] has an IC50 of 47 nM.

`NC1=N[C@@](c2cc(NC(=O)c3ncc(OC(F)F)cc3Cl)ccc2F)(C(F)F)COC1` [Example 185, 3-Chloro-5-difluoromethoxy-pyridine-2-carboxylic acid [3-((R)-5-amino-3-difluoromethyl-3,6-dihydro-2H-[1,4]oxazin-3-yl)-4-fluoro-phenyl]-amide hydrochloride] was tested, and the IC50 was 199 nM.

Work on `CN1CC(N)=NC(C)(c2cc(NC(=O)c3ccc(Br)cn3)ccc2F)C1=O` (stereo not shown) [Example 186, 5-Bromo-pyridine-2-carboxylic acid [3-(6-amino-2,4-dimethyl-3-oxo-2,3,4,5-tetrahydro-pyrazin-2-yl)-4-fluoro-phenyl]-amide] yielded an IC50 of 9110 nM.

For `CN1CC(N)=NC(C)(c2cc(NC(=O)c3ccc(Br)cn3)ccc2F)C1` (stereo not shown) [Example 187, 5-Bromo-pyridine-2-carboxylic acid [3-(6-amino-2,4-dimethyl-2,3,4,5-tetrahydro-pyrazin-2-yl)-4-fluoro-phenyl]-amide], the IC50 was 104 nM.

With `CN1CC(N)=NC(C)(c2cccc(NC(=O)c3ccc(Br)cn3)c2)C1=O` (stereo not shown) [Example 188, 5-Bromo-pyridine-2-carboxylic acid [3-(6-amino-2,4-dimethyl-3-oxo-2,3,4,5-tetrahydro-pyrazin-2-yl)-phenyl]-amide] the IC50 was 798 nM.

`CN1CC(C)(c2cc(NC(=O)c3ccc(Br)cn3)ccc2F)N=C(N)C1=O` (stereo not shown) [Example 189, 5-Bromo-pyridine-2-carboxylic acid [3-(6-amino-2,4-dimethyl-5-oxo-2,3,4,5-tetrahydro-pyrazin-2-yl)-4-fluoro-phenyl]-amide hydrochloride] was tested, and the IC50 was 49 nM.

In the case of `CN1CC(C)(c2cc(NC(=O)c3ccc(Cl)cn3)ccc2F)N=C(N)C1=O` (stereo not shown) [Example 190, 5-Chloro-pyridine-2-carboxylic acid [3-(6-amino-2,4-dimethyl-5-oxo-2,3,4,5-tetrahydro-pyrazin-2-yl)-4-fluoro-phenyl]-amide hydrochloride], the IC50 is reported as 35 nM.

`CCN1CC(C)(c2cc(NC(=O)c3ccc(Br)cn3)ccc2F)N=C(N)C1=O` (stereo not shown) [Example 191, 5-Bromo-pyridine-2-carboxylic acid [3-(6-amino-4-ethyl-2-methyl-5-oxo-2,3,4,5-tetrahydro-pyrazin-2-yl)-4-fluoro-phenyl]-amide hydrochloride] was tested, and the IC50 was 30 nM.

With `CN1CC(C)(c2cc(NC(=O)c3ncc(Cl)cc3Cl)ccc2F)N=C(N)C1=O` (stereo not shown) [Example 192, 3,5-Dichloro-pyridine-2-carboxylic acid [3-(6-amino-2,4-dimethyl-5-oxo-2,3,4,5-tetrahydro-pyrazin-2-yl)-4-fluoro-phenyl]-amide hydrochloride] the IC50 was 13 nM.

`CCN1CC(C)(c2cc(NC(=O)c3ncc(Cl)cc3Cl)ccc2F)N=C(N)C1=O` (stereo not shown) [Example 193, 3,5-Dichloro-pyridine-2-carboxylic acid [3-(6-amino-4-ethyl-2-methyl-5-oxo-2,3,4,5-tetrahydro-pyrazin-2-yl)-4-fluoro-phenyl]-amide hydrochloride] showed an IC50 of 8 nM.

`CC(C)N1CC(C)(c2cc(NC(=O)c3ccc(Br)cn3)ccc2F)N=C(N)C1=O` (stereo not shown) [Example 194, 5-Bromo-pyridine-2-carboxylic acid [3-(6-amino-4-isopropyl-2-methyl-5-oxo-2,3,4,5-tetrahydro-pyrazin-2-yl)-4-fluoro-phenyl]-amide hydrochloride] showed an IC50 of 47 nM.

`COCCN1CC(C)(c2cc(NC(=O)c3ncc(Cl)cc3Cl)ccc2F)N=C(N)C1=O` (stereo not shown) [Example 195, 3,5-Dichloro-pyridine-2-carboxylic acid {3-[6-amino-4-(2-methoxy-ethyl)-2-methyl-5-oxo-2,3,4,5-tetrahydro-pyrazin-2-yl]-4-fluoro-phenyl}-amide hydrochloride] gave an IC50 of 6 nM.

Compound `COCCN1CC(C)(c2cc(NC(=O)c3ccc(Br)cn3)ccc2F)N=C(N)C1=O` (stereo not shown) [Example 196, 5-Bromo-pyridine-2-carboxylic acid {3-[6-amino-4-(2-methoxy-ethyl)-2-methyl-5-oxo-2,3,4,5-tetrahydro-pyrazin-2-yl]-4-fluoro-phenyl}-amide hydrochloride] has an IC50 of 17 nM.

`Cn1cc(N2CC(C)(c3cc(NC(=O)c4ccc(Br)cn4)ccc3F)N=C(N)C2=O)cn1` (stereo not shown) [Example 197, 5-Bromo-pyridine-2-carboxylic acid {3-[6-amino-2-methyl-4-(1-methyl-1H-pyrazol-4-yl)-5-oxo-2,3,4,5-tetrahydro-pyrazin-2-yl]-4-fluoro-phenyl}-amide hydrochloride] gave an IC50 of 18 nM.

Compound `CC1(c2cc(NC(=O)c3ccc(Br)cn3)ccc2F)CN(c2cccnc2)C(=O)C(N)=N1` (stereo not shown) [Example 198, 5-Bromo-pyridine-2-carboxylic acid [3-(6-amino-2-methyl-5-oxo-4-pyridin-3-yl-2,3,4,5-tetrahydro-pyrazin-2-yl)-4-fluoro-phenyl]-amide hydrochloride] has an IC50 of 9 nM.

`CCN1CC(C)(c2cc(NC(=O)c3ccc(C#N)cn3)ccc2F)N=C(N)C1=O` (stereo not shown) [Example 199, 5-Cyano-pyridine-2-carboxylic acid [3-(6-amino-4-ethyl-2-methyl-5-oxo-2,3,4,5-tetrahydro-pyrazin-2-yl)-4-fluoro-phenyl]-amide hydrochloride] gave an IC50 of 132 nM.

For `NC1=NC(c2cc(NC(=O)c3ccc(Br)cn3)ccc2F)(C(F)F)CNC1` (stereo not shown) [Example 201, 5-Bromo-pyridine-2-carboxylic acid [3-(6-amino-2-difluoromethyl-2,3,4,5-tetrahydro-pyrazin-2-yl)-4-fluoro-phenyl]-amide], the IC50 was 24 nM.

`N#Cc1ccc(C(=O)Nc2ccc(F)c(C3(C(F)F)CNCC(N)=N3)c2)nc1` (stereo not shown) [Example 202, 5-Cyano-pyridine-2-carboxylic acid [3-(6-amino-2-difluoromethyl-2,3,4,5-tetrahydro-pyrazin-2-yl)-4-fluoro-phenyl]-amide] showed an IC50 of 66 nM.

With `N#Cc1ccc(C(=O)Nc2ccc(F)c(C3(C(F)F)CNC(=O)C(N)=N3)c2)nc1` (stereo not shown) [Example 203, 5-Cyano-pyridine-2-carboxylic acid [3-(6-amino-2-difluoromethyl-5-oxo-2,3,4,5-tetrahydro-pyrazin-2-yl)-4-fluoro-phenyl]-amide] the IC50 was 7 nM.

`COC(=O)N1CC(N)=NC(c2cc(NC(=O)c3ccc(Br)cn3)ccc2F)(C(F)F)C1` (stereo not shown) [Example 204, 5-Amino-3-{5-[(5-bromo-pyridine-2-carbonyl)-amino]-2-fluoro-phenyl}-3-difluoromethyl-3,6-dihydro-2H-pyrazine-1-carboxylic acid methyl ester] was tested, and the IC50 was 10 nM.

In the case of `COC(=O)N1CC(N)=NC(c2cc(NC(=O)c3ccc(C#N)cn3)ccc2F)(C(F)F)C1` (stereo not shown) [Example 205, 5-Amino-3-{5-[(5-cyano-pyridine-2-carbonyl)-amino]-2-fluoro-phenyl}-3-difluoromethyl-3,6-dihydro-2H-pyrazine-1-carboxylic acid methyl ester], the IC50 is reported as 104 nM.

`CC(=O)N1CC(N)=NC(c2cc(NC(=O)c3ncc(Br)cc3C)ccc2F)(C(F)F)C1` (stereo not shown) [Example 206, 5-Bromo-3-methyl-pyridine-2-carboxylic acid [3-(4-acetyl-6-amino-2-difluoromethyl-2,3,4,5-tetrahydro-pyrazin-2-yl)-4-fluoro-phenyl]-amide] gave an IC50 of 4 nM.

With `Cc1cc(Br)cnc1C(=O)Nc1ccc(F)c(C2(C(F)F)CN(C(=O)OCC(Cl)Cl)CC(N)=N2)c1` (stereo not shown) [Example 207, 5-Amino-3-{5-[(5-bromo-3-methyl-pyridine-2-carbonyl)-amino]-2-fluoro-phenyl}-3-difluoromethyl-3,6-dihydro-2H-pyrazine-1-carboxylic acid 2,2-dichloro-ethyl ester] the IC50 was 3 nM.

Work on `COCC(=O)N1CC(N)=NC(c2cc(NC(=O)c3ncc(Br)cc3C)ccc2F)(C(F)F)C1` (stereo not shown) [Example 208, 5-Bromo-3-methyl-pyridine-2-carboxylic acid {3-[6-amino-2-difluoromethyl-4-(2-methoxy-acetyl)-2,3,4,5-tetrahydro-pyrazin-2-yl]-4-fluoro-phenyl}-amide] yielded an IC50 of 4 nM.

`Cc1cc(Br)cnc1C(=O)Nc1ccc(F)c(C2(C(F)F)CN(C(=O)C3CC3)CC(N)=N2)c1` (stereo not shown) [Example 209, 5-Bromo-3-methyl-pyridine-2-carboxylic acid [3-(6-amino-4-cyclopropanecarbonyl-2-difluoromethyl-2,3,4,5-tetrahydro-pyrazin-2-yl)-4-fluoro-phenyl]-amide] was tested, and the IC50 was 6 nM.

With `Cc1cc(Br)cnc1C(=O)Nc1ccc(F)c(C2(C(F)F)CNCC(N)=N2)c1` (stereo not shown) [Example 210, 5-Bromo-3-methyl-pyridine-2-carboxylic acid [3-(6-amino-2-difluoromethyl-2,3,4,5-tetrahydro-pyrazin-2-yl)-4-fluoro-phenyl]-amide] the IC50 was 23 nM.
